Experimental data published in patent US20140221207A1, “ISOLATED BACTERIAL STRAIN OF THE GENUS BURKHOLDERIA AND PESTICIDAL METABOLITES THEREFROM- FORMULATIONS AND USES” (MARRONE BIO INNOVATIONS, INC., priority 2011, published 2014).
Where two headings read alike, the source gives them in different places.

Columns and labels:
[1] = system: M. incognita and M. hapla; assay: In vitro 96-well nematode immobility bioassay, mean of trials T1 and T2; assay type: in vivo; conditions: 3 μl of 20 mg/ml to 50 μl, 24 hour, 25° C
Experimental: (§1) The pure sample of butyl paraben and hexyl paraben was used in an in vitro 96-well plastic cell-culture plate bioassay. 15-20 nematodes in a 50 μl water solution were exposed to 3 μl of a 20 mg/ml peak concentrate for a 24 hour period at 25° C. Once the incubation period was completed, results were recorded based on a visual grading of immobility of the juvenile nematodes (J2's) in each well treated with compounds; each treatment was tested in replicate of 4 wells. […] Three controls are included in each trial; 1 positive (1% Avid) & 2 negative (DMSO & water). Trials (T1) was carried out using M. incognita nematodes and trail (T2) was carried out using M. hapla nematodes, the samples were dissolved in 100% DMSO.

[2] = system: Beet Armyworm (Spodoptera exigua); assay: 96-well diet overlay assay with 1st instar Beet Armyworm larvae; assay type: in vivo; conditions: for mortality at 40 µg/disc: Spodoptera exigua
Experimental: The insecticidal activity of butyl paraben (MBI206-FP-F5H32) and hexyl paraben (MBI206-FP-F5H40) were tested in a laboratory assay using a 96-well diet overlay assay with 1st instar Beet Armyworm (Spodoptera exigua) larvae using microtiter plates with 200 ul of solid, artificial Beet Armyworm diet in each well. One hundred (100) microliters of each test sample (containing 40 ug of sample) is pipetted on the top of the diet (one sample in each well), and the sample is let dry under flowing air until the surface is dry. Each sample was tested in six replicates, and water and a commercial Dipel product are used as negative and positive controls, respectively. One first instar larvae of the test insect (Beet armyworm—Spodoptera exigua) was placed in each well, and the plate was covered with plastic cover with airholes. The plates with insects were incubated at 26° C. for 6 days with daily mortality evaluations.

radish plants = assay: Whole plant herbicidal bioassay on radish; assay type: in vivo; design: Control, Day-1 Reading, Replicate 1 / Control, Day-1 Reading, Replicate 2 / Control, Day-1 Reading, Replicate 3 / Control, Day-1 Reading, AVG / Control, Day-7 Reading, Replicate 1 / Control, Day-7 Reading, Replicate 2 / Control, Day-7 Reading, Replicate 3 / Control, Day-7 Reading, AVG: scale not given here; conditions: 10 mg/ml; for Control, Day-1 Reading, AVG / Control, Day-1 Reading, Replicate 1 / Control, Day-1 Reading, Replicate 2 / Control, Day-1 Reading, Replicate 3 / Control, Day-7 Reading, AVG / Control, Day-7 Reading, Replicate 1 / Control, Day-7 Reading, Replicate 2 / Control, Day-7 Reading, Replicate 3: foliar spray
Experimental: Healthy radish plants with two to three true leaves were selected for testing. The radish plants are 13 days old at treatment. The plants are sorted so that all treatments are equivalent in foliage surface area and plant height. The pots are labeled with treatment number and repetition number. Three repetitions per treatment are tested.
Ten fractions of MBI-206 formulated product are tested. The fractions are at a concentration of 10 mg/ml. The crude extracts of the formulated product and broth are also tested. An untreated control (treated with deionized water) and a positive control (RoundUp Super Concentrate at a rate of 2.5 fluid ounces per gallon) are included in the test.
All products and treatments are well shaken prior to application. Treatments are applied using a nozzle from a 2-ounce spray bottle. Separate spray nozzles were used for each treatment. […] Two milliliters of each treatment are sprayed simultaneously over the three repetitions of each treatment so that each plant is treated with approximately 0.67 milliliters of treatment solution.
The plants are allowed to air dry and are then randomized in holding trays. Each tray is labeled with the experiment name and treatment date and placed on the laboratory greenhouse shelves. The laboratory greenhouse maintains a temperature of 70-80° F. and a relative humidity of 30-40%. Throughout the bioassay, plants are watered from below by filling the holding trays with an appropriate amount of water so that plant foliage remained dry.
Symptoms included foliage burning and plant stunting. The following rating scale, shown in Table 4 is used to quantify efficacy. Ratings are determined by observing the following factors relative to the plants of the untreated control: overall plant health, average plant height, and foliage health. Symptoms of affected plants may include discolored/spotted/burnt/bleached foliage, warped/twisted/curled leaves, side branching (due to damaged apical meristem), plant dieback, or death.
The pure compounds (butyl paraben [MBI206-FP-F5H32] and hexyl paraben [MBI206-FP-F5H40]) obtained from fraction 5 were tested at a concentration of 10 mg/ml. An untreated control (treated with deionized water), the formulation blank (at 3% v/v & 10% v/v), and a positive control (RoundUp Super Concentrate at a rate of 2.5 fluid ounces per gallon) are included in the test.

M. hapla = assay: In vitro 96-well nematode immobility bioassay, trial T2; assay type: in vivo; conditions: 3 μl of 20 mg/ml to 50 μl, 24 hour, 25° C
Experimental: as §1

M. incognita [3] = assay: In vitro 96-well nematode immobility bioassay, trial T1; assay type: in vivo; conditions: 3 μl of 20 mg/ml to 50 μl, 24 hour, 25° C
Experimental: as §1

M. incognita [4] = assay: In vitro 96-well nematode immobility bioassay of FR901228, trial T2; assay type: in vivo; conditions: 3 μl of 20 mg/ml to 50 μl, 24 hour, 25 C
Experimental: (§2) The pure sample of FR 901228 was tested using an in vitro 96-well plastic cell-culture plate bioassay. 15-20 nematodes in a 50 μl water solution were exposed to 3 μl of a 20 mg/ml solution of FR 901228 for a 24 hour period at 25 C. Once the incubation period was completed, results were recorded based on a visual grading of immobility of the juvenile nematodes (J2's) in each well treated with compounds; each treatment was tested in replicate of 4 wells. Three controls are included in each trial; 1 positive (1% Avid) & 2 negative (DMSO & water). Trials (T1) was carried out using Free living nematodes (FLN) and trail (T2) was carried out using M. incognita nematodes, the samples were dissolved in 100% DMSO.

Lygus hesperus = assay: 12 well plate treated green beans bioassay, Lygus hesperus late 2nd/early 3rd instar; assay type: in vivo; conditions: Lygus hesperus; green beans dipped in 0.25 mg/mL; scored at 24, 48 and 120 hours
Experimental: The insecticidal activity of the four compounds, templamide A, templamide B, FR901465 & FR901228 isolated from Burkholderia were tested in a laboratory assay using a 12 well plate with treated green beans bioassay system. The compound was dissolved in 100% ethanol to concentrations of […] and 500 μL of this sample was added to 3.5 mL of water to make a total volume of 4 mL containing 0.25 mg/mL concentration of the compound. Green beans were washed earlier in bleach solution and then sat in water to rinse. Beans were dried before using and then were cut with scissors to fit into wells of 12-well plate. With the help of forceps the beans were dunked into a 15 mL plastic falcon tube containing each treatment and then submerged in treatment for exactly one min. one bean part was put into each well and then individual late 2nd/early 3rd instar Lygus hesperus, were placed in wells with help of brush. Plate sealer was used to cover tray and hole poked into the plate sealer for aeration. The numbers of Lygus/well were counted and plates were placed on brench top. Larvae were scored at 24, 48 and 120 hours after application. […] The positive control used in this testing was Avid (Avemectin) at the rate of 13 μL/10 mL.

[5] = system: Chlamydomonas reinhardtii; assay: Control of Chlamydomonas reinhardtii by purified compounds, fluorescence at 680 nm; assay type: cell-based; conditions: 72 hours
Experimental: Purified compounds from Burkholderia sp. fermentation broth was tested for algaicidal activity against Chlamydomonas reinhardtii. An increasing volume of the purified compounds (20 mg/mL in ethanol) was added to a clear 48 well polystyrene plate with 750 micro liters of the specified algae growing. Each treatment was done in two replicates and the solvent used as a negative control. The plate was closed with a lid and incubated for 72 hours under constant light at room temperature. After 72 hours the fluorescence (at 680 nm) of the suspension in each well was measured using a SpectraMax M2 plate reader, and the reduction in fluorescence compared with the negative control was converted into percent control of algal growth. Each sample was visually compared to the negative control; a well that was visually clearer than the negative control was scored as active. […] Tests were run in two replicates and %. Control was calculated as a reduction of fluorescence at 680 nm compared with the negative control. Each sample was visually compared to the negative control; a well that was visually clearer than the negative control was scored as active.

[6] = system: Free living nematodes (FLN); assay: In vitro 96-well nematode immobility bioassay of FR901228, trial T1; assay type: in vivo; conditions: 3 μl of 20 mg/ml to 50 μl, 24 hour, 25 C
Experimental: as §2

[7] = system: milkweed bugs (Oncopeltus fasciatus); assay: Sucking contact bioassay on milkweed bugs; assay type: in vivo; conditions: 1 μL of 1 mg/mL in ethanol onto abdomen of 4th instar; scored at 4 and 7 day
Experimental: The insecticidal activity of the pure compounds templamide B (MBI 206; MW 537), FR 901465 (MBI 206; MW 523) and FR901228 (MBI 206; MW 540) were tested in a laboratory assay using a sucking contact bioassay system. The compounds were dissolved in 100% ethanol to concentrations of 1 mg/mL. Individual 4th instar milkweed bugs, penultimate nymph, larvae were placed in 5C Rubbermaid container with 2 sunflower seeds in each tub and 1 water cup (water in contact cup with cotton wick) into each tub. A Hamilton Micropipette was used to apply 1 μL (1 drop) of compound onto abdomen of milkweed bugs (MWB) of each larvae. Tubs were place into the Rubbermaid container and cap with mesh lid. Eight larvae per sample were treated. The assay was incubated at 25° C., 12 h light/12 h dark. Larvae were scored at 4 and 7 day after application. […] Thus, FR 901465 provided a better (87.5%) control of milkweed bugs, than FR 901228 (MW 540) and templamide B (FIG. 4).

[8] = 72 h, read-out: Insecticidal bioassay data (mortality), Day 3
[9] = 96 h, read-out: Insecticidal bioassay data (mortality), Day 4
[10] = 5 μL of sample (20 mg/mL in ethanol) per 750 μL of algae
[11] = 5 μL of sample per 750 μL of algae
[12] = 11 μL of sample (20 mg/mL in ethanol) per 750 μL of algae
[13] = 11 μL of sample per 750 μL of algae
[14] = 22.5 μL of sample (20 mg/mL in ethanol) per 750 μL of algae
[15] = 22.5 μL of sample per 750 μL of algae, well visually clearer than negative control scored as active

SMILES	Mean % immobility [1]	mortality at 40 µg/disc [2, 8]	mortality at 40 µg/disc [2, 9]	Control, Day-1 Reading, AVG (radish plants)	Control, Day-1 Reading, Replicate 1 (radish plants)	Control, Day-1 Reading, Replicate 2 (radish plants)	Control, Day-1 Reading, Replicate 3 (radish plants)	Control, Day-7 Reading, AVG (radish plants)	Control, Day-7 Reading, Replicate 1 (radish plants)	Control, Day-7 Reading, Replicate 2 (radish plants)	Control, Day-7 Reading, Replicate 3 (radish plants)	% immobility (trial # T2) (M. hapla)	% immobility (trial # T1) (M. incognita [3])	immobility against M. incognita (M. incognita [3])	mortality at 250 µg/mL (Lygus hesperus)	% Control [5, 10]	Visual [5, 11]	% Control [5, 12]	Visual [5, 13]	% Control [5, 14]	other results
CCCCOC(=O)c1ccc(O)cc1 [Butyl paraben, butyl paraben]	81.25%	8.93%	8.93%	18.3	25	5	25	24.2	25	10	37.5	87.5%	75%	81.25%	–	–	–	–	–	–	mortality ([2]; 40 ug of sample per well, text summary of Table 7): 9%
C/C=C1\NC(=O)[C@H]2CSSCC/C=C/[C@H](CC(=O)N[C@H](C(C)C)C(=O)N2)OC(=O)[C@H](C(C)C)NC1=O [FR901228]	–	–	–	–	–	–	–	–	–	–	–	–	–	–	51.7%	89.48%	Active	99.36%	Active	98.71%	immobility (M. incognita [4]): 75%; Visual [5, 15]: Active; immobility [6]: 75%
CC(=O)OC(C)/C=C\C(=O)NC1CC(C)C(C/C=C(C)/C=C/C2OC(C)(O)C(O)C3(CO3)C2O)OC1C (centres unmarked) [FR901465]	–	–	–	–	–	–	–	–	–	–	–	–	–	–	91.2%	−86.58%	Not Active	−33.58%	Not Active	−3.887%	control of milkweed bugs [7]: 87.5%; Visual [5, 15]: Not Active
CCCCCCOC(=O)c1ccc(O)cc1 [Hexyl paraben, hexyl paraben]	93.75%	50%	70.8%	75.0	75	75	75	87.5	87.5	87.5	87.5	100%	87.5%	93.75%	–	–	–	–	–	–	herbicidal potency in words (radish plants; compared with butyl paraben): most potent herbicidal compound
